Active and inactive are the calls of the source. For most assays here, no stated cut-off is given here; in the data, actives have a measured Kd and inactives only a lower limit.
How the values were obtained:
[1] = molecular target: T1, Dual specificity mitogen-activated protein kinase kinase 6 (Homo sapiens, UniProt P52564)
T1 sequence (P52564 whole entry): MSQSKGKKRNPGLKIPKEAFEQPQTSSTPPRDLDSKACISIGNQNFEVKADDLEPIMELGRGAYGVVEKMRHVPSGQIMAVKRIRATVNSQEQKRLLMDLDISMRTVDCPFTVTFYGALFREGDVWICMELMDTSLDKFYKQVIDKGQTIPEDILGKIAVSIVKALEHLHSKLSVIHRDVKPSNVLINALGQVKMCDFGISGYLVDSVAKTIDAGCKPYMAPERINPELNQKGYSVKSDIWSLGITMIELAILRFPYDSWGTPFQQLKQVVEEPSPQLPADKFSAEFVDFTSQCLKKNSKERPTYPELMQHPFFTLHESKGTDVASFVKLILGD

[2] = molecular target: Citron Rho-interacting kinase (Homo sapiens, UniProt O14578)
Chain of Citron Rho-interacting kinase (O14578 whole entry): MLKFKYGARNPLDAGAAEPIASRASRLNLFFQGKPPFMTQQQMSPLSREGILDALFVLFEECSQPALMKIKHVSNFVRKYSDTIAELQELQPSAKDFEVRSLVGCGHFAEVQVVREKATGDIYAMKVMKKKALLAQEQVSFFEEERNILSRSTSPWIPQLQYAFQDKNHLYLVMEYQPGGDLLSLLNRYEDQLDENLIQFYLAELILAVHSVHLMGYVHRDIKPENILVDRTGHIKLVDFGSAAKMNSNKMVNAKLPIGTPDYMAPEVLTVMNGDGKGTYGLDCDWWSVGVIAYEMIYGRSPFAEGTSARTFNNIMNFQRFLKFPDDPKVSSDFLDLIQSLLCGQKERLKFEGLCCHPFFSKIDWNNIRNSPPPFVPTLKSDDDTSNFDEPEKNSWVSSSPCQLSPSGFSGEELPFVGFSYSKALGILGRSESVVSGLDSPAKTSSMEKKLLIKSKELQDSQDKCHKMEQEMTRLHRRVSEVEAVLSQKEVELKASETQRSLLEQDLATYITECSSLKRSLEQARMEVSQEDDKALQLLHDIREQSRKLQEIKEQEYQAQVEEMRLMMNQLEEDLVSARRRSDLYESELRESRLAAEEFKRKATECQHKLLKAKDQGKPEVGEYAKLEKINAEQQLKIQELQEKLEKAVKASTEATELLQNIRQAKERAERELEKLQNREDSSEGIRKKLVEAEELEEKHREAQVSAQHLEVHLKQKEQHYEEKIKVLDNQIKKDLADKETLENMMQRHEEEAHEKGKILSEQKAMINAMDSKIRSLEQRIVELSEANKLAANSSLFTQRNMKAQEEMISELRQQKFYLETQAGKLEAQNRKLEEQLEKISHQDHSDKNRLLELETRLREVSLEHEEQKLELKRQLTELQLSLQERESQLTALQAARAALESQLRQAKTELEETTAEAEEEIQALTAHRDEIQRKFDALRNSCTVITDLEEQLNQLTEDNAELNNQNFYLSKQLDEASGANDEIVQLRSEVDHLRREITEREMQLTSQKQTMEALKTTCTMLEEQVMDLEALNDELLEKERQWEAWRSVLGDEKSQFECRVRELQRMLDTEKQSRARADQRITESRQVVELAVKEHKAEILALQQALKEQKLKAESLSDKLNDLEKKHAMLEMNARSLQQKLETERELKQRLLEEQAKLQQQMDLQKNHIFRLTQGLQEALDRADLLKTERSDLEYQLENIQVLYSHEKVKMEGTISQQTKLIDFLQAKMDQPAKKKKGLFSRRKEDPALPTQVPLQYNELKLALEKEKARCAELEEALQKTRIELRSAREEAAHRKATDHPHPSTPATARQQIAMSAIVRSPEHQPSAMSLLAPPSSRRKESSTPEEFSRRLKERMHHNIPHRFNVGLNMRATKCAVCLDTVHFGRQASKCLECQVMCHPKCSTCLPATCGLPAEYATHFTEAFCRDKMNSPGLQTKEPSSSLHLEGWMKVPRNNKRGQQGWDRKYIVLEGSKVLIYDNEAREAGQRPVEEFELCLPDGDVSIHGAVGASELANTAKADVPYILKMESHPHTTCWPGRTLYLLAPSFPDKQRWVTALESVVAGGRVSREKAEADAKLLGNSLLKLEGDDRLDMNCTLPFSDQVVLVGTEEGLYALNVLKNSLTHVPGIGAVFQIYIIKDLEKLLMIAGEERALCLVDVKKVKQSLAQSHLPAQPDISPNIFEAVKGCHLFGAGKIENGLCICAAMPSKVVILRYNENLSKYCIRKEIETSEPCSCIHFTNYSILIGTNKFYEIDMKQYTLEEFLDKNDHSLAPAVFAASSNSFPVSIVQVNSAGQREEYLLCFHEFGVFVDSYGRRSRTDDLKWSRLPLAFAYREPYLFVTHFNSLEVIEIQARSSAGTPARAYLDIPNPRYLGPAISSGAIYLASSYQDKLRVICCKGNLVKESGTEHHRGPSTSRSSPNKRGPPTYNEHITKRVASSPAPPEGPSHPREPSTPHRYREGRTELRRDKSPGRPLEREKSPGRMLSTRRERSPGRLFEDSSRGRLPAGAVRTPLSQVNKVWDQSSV

[3] = molecular target: Mitogen-activated protein kinase 14 (Homo sapiens, UniProt Q16539)
Chain of Mitogen-activated protein kinase 14 (Q16539 whole entry): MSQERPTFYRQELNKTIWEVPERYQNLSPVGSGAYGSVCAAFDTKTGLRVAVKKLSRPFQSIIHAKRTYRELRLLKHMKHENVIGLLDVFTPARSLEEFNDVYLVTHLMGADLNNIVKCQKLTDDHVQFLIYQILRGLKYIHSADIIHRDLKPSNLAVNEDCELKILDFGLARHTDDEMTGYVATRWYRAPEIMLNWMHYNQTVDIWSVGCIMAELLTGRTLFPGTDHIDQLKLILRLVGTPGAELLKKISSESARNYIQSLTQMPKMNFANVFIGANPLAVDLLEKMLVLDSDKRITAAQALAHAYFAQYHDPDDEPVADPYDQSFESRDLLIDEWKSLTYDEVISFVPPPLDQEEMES

[4] = molecular target: High affinity nerve growth factor receptor (Homo sapiens, UniProt P04629)
Chain of High affinity nerve growth factor receptor (P04629 whole entry): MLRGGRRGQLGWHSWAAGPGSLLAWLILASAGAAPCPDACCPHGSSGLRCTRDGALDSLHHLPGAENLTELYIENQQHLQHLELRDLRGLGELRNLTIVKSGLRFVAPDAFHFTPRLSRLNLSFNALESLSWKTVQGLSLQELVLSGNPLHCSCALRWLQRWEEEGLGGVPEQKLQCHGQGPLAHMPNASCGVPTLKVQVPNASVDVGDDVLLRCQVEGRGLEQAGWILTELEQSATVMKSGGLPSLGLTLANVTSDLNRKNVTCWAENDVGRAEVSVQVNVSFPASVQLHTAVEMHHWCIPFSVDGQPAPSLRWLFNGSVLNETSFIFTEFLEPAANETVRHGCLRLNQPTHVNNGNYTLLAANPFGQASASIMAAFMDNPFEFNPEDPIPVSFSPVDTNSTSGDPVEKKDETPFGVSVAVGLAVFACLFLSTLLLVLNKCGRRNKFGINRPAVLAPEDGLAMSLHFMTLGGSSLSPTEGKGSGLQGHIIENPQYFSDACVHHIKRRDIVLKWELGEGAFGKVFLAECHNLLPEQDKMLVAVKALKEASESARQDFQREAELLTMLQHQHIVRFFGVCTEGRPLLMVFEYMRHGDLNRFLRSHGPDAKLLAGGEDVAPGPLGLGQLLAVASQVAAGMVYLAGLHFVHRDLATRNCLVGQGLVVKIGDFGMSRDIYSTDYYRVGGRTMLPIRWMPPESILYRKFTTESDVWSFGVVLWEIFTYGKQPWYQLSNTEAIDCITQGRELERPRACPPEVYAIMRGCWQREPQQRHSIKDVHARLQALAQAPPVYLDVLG

[5] = molecular target: Serine/threonine-protein kinase B-raf (Homo sapiens, UniProt P15056)
Chain of Serine/threonine-protein kinase B-raf (P15056 whole entry): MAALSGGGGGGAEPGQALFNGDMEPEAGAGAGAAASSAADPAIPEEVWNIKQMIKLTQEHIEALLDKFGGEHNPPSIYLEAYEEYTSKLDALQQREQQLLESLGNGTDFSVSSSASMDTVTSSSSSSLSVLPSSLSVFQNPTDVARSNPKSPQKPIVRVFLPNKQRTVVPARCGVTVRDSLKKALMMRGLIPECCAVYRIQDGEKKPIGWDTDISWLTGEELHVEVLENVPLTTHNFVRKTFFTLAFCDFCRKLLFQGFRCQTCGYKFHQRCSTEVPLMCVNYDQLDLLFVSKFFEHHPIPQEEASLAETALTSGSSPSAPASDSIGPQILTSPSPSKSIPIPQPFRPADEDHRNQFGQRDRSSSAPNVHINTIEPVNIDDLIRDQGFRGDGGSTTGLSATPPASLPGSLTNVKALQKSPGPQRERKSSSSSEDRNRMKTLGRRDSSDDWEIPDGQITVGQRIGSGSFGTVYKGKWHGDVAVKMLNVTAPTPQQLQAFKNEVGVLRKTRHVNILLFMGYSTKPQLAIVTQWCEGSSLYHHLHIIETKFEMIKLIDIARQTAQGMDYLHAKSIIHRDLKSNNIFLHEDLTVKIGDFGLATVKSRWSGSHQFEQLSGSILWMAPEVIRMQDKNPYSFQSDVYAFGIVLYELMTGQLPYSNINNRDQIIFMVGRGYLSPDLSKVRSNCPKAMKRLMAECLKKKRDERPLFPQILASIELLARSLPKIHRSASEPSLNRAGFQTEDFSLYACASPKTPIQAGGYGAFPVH

[6] = molecular target: DnaJ homolog subfamily A member 1 (Homo sapiens, UniProt P31689)
Chain of DnaJ homolog subfamily A member 1 (P31689 whole entry): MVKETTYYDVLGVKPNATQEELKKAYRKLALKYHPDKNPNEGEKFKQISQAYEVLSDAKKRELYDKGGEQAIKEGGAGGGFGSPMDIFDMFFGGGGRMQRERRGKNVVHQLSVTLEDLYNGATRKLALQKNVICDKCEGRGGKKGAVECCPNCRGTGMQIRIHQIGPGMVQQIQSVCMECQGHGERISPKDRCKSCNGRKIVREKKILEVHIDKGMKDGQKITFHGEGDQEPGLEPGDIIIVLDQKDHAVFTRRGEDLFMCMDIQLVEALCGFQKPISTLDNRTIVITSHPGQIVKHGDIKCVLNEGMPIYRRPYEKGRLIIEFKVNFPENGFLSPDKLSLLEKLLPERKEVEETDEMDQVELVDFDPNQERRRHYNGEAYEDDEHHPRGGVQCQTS

[7] = molecular target: T2, Breakpoint cluster region protein (Homo sapiens, UniProt P11274)
T2 sequence (P11274 whole entry): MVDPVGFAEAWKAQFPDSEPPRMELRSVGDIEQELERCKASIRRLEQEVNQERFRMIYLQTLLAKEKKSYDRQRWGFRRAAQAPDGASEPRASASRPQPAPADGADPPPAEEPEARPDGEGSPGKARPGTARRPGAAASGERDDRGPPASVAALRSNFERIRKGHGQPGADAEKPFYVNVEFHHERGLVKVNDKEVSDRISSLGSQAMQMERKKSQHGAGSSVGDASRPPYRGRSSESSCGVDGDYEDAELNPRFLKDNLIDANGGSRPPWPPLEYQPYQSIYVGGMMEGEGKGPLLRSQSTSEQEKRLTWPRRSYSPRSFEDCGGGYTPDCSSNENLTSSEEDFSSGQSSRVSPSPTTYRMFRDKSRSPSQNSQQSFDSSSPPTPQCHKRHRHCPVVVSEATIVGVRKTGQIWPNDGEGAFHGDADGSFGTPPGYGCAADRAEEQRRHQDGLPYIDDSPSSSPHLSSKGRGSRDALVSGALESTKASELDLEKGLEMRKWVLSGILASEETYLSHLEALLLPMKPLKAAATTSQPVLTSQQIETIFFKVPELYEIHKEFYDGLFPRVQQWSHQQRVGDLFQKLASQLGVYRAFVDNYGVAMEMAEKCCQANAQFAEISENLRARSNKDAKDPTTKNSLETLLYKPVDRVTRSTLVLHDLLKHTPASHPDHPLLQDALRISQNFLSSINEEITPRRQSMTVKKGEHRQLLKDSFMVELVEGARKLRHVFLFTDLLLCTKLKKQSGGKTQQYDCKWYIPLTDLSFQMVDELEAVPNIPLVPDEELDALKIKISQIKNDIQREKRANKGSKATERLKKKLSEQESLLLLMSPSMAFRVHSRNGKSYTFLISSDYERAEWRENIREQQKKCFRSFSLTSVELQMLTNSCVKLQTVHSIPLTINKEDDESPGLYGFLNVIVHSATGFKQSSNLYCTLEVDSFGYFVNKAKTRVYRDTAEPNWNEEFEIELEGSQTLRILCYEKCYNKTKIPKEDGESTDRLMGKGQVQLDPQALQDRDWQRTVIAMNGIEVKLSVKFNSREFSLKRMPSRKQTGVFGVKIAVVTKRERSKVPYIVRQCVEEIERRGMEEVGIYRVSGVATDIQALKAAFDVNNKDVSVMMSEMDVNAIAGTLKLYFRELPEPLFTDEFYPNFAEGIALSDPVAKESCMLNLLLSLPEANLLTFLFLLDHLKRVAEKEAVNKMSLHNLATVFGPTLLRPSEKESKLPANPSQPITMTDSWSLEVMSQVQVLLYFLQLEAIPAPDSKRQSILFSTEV

[8] = molecular target: Macrophage-stimulating protein receptor (Homo sapiens, UniProt Q04912)
[9] = molecular target: Glycogen synthase kinase-3 alpha (Homo sapiens, UniProt P49840)
Chain of Glycogen synthase kinase-3 alpha (P49840 whole entry): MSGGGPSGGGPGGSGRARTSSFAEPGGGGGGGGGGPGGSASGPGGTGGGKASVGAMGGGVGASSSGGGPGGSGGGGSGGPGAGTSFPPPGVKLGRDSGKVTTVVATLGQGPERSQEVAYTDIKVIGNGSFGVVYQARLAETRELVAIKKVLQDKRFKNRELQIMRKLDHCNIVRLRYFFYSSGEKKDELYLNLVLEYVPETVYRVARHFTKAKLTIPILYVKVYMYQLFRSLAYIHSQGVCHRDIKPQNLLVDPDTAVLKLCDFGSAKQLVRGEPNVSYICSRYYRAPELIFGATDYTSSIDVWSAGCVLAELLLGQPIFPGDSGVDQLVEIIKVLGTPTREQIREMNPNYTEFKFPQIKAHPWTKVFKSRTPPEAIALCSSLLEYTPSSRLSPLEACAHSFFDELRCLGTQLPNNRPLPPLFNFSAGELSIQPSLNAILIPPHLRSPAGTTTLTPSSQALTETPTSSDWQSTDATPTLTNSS

[10] = molecular target: T3, Serine/threonine-protein kinase Nek2 (Homo sapiens, UniProt P51955)
T3 sequence (P51955 whole entry): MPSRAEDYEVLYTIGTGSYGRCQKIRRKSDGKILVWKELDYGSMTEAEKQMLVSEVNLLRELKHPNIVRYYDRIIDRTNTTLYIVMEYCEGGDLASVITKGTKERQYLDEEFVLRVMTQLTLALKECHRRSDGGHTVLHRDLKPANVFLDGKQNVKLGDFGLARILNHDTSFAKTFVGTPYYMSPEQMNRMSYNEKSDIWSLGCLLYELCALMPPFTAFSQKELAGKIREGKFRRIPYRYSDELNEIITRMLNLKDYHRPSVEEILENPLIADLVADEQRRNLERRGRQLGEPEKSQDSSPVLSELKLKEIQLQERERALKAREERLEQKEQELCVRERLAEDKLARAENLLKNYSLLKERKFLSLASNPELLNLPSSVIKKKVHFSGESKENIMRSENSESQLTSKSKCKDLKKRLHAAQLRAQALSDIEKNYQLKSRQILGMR

[11] = molecular target: T4, Succinate--CoA ligase [ADP-forming] subunit beta, mitochondrial (Homo sapiens, UniProt Q9P2R7)
T4 sequence (Q9P2R7 whole entry): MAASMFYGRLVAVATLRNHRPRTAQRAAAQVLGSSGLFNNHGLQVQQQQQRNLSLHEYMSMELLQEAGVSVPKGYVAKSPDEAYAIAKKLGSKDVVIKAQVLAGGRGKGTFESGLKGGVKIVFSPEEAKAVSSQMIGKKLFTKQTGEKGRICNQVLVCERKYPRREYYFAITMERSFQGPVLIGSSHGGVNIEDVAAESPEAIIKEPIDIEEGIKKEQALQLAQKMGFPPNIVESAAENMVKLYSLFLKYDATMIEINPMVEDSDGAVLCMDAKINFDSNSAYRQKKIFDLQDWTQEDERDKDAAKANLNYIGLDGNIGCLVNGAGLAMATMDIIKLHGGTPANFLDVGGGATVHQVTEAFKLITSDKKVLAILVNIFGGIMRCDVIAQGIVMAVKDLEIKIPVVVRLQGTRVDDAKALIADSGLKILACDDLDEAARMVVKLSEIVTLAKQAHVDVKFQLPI

[12] = molecular target: Mitogen-activated protein kinase kinase kinase kinase 4 (Homo sapiens, UniProt O95819)

Row | Kd [1] | Kd [2] | Kd [3] | Kd [4] | Kd [5] | Kd [6] | Kd [7] | Kd [8] | Kd [9] | Kd [10] | Kd [11] | Kd [12] | Compound
1 | > 30 µM (inactive) | > 30 µM (inactive) | > 30 µM (inactive) | > 30 µM (inactive) | > 30 µM (inactive) | > 30 µM (inactive) | > 30 µM (inactive) | > 30 µM (inactive) | > 30 µM (inactive) | > 30 µM (inactive) | > 30 µM (inactive) | > 30 µM (inactive) | CO[C@H]1C[C@@H]2CC[C@@H](C)[C@@](O)(O2)C(=O)C(=O)N2CCCC[C@H]2C(=O)O[C@H]([C@H](C)C[C@@H]2CC[C@@H](O)[C@H](OC)C2)CC(=O)[C@H](C)/C=C(\C)[C@@H](O)[C@@H](OC)C(=O)[C@H](C)C[C@H](C)/C=C/C=C/C=C/1C [SIROLIMUS]
2 | > 30 µM (inactive) | > 30 µM (inactive) | > 30 µM (inactive) | > 30 µM (inactive) | > 30 µM (inactive) | > 30 µM (inactive) | > 30 µM (inactive) | > 30 µM (inactive) | > 30 µM (inactive) | > 30 µM (inactive) | > 30 µM (inactive) | > 30 µM (inactive) | CO[C@H]1C[C@@H]2CC[C@@H](C)[C@@](O)(O2)C(=O)C(=O)N2CCCC[C@H]2C(=O)O[C@H]([C@H](C)C[C@@H]2CC[C@@H](OC(=O)C(C)(CO)CO)[C@H](OC)C2)CC(=O)[C@H](C)/C=C(\C)[C@@H](O)[C@@H](OC)C(=O)[C@H](C)C[C@H](C)/C=C/C=C/C=C/1C [TEMSIROLIMUS]
3 | > 30 µM (inactive) | > 30 µM (inactive) | > 30 µM (inactive) | > 30 µM (inactive) | > 30 µM (inactive) | > 30 µM (inactive) | > 30 µM (inactive) | > 30 µM (inactive) | > 30 µM (inactive) | > 30 µM (inactive) | > 30 µM (inactive) | > 30 µM (inactive) | O=C(Cc1ccc(-c2ccc(OCCN3CCOCC3)cc2)cn1)NCc1ccccc1 [TIRBANIBULIN]
4 | > 30 µM (inactive) | > 30 µM (inactive) | > 30 µM (inactive) | > 30 µM (inactive) | > 30 µM (inactive) | > 30 µM (inactive) | > 30 µM (inactive) | > 30 µM (inactive) | > 30 µM (inactive) | > 30 µM (inactive) | > 30 µM (inactive) | > 30 µM (inactive) | O=C1NC(=O)[C@@H](c2cn3c4c(cccc24)CCC3)[C@@H]1c1c[nH]c2ccccc12 [TIVANTINIB]
5 | > 30 µM (inactive) | > 30 µM (inactive) | > 30 µM (inactive) | > 30 µM (inactive) | > 30 µM (inactive) | > 30 µM (inactive) | > 30 µM (inactive) | > 30 µM (inactive) | > 30 µM (inactive) | > 30 µM (inactive) | > 30 µM (inactive) | > 30 µM (inactive) | Cn1ncc(Cl)c1-c1cc(C(=O)N[C@H](CN)Cc2ccc(F)c(F)c2)oc1Cl [UPROSERTIB]
6 | > 30 µM (inactive) | > 30 µM (inactive) | > 30 µM (inactive) | 0.006 µM (active) | > 30 µM (inactive) | > 30 µM (inactive) | 0.003 µM (active) | 2.37 µM (active) | > 30 µM (inactive) | > 30 µM (inactive) | > 30 µM (inactive) | > 30 µM (inactive) | CC(C)c1cc(CNc2nc(Nc3cc(C4CC4)[nH]n3)cc(N3CCN(C)CC3)n2)on1 [XL-228]
